From patent US8367696B2, “Aza-bridged-ring compound” (Astellas Pharma Inc., priority 2007, dated 2013)
pKi: −log10 of the molar value.

Molecular target: muscarinic M3 receptor (Rattus norvegicus, UniProt P08483)
Experiment: not given
Conditions: receptor binding antagonistic experiment, [3H]-N-methylscopolamine, rat membrane specimen, 25° C. 2 hours

muscarinic M3 receptor, sequence (P08483 whole entry): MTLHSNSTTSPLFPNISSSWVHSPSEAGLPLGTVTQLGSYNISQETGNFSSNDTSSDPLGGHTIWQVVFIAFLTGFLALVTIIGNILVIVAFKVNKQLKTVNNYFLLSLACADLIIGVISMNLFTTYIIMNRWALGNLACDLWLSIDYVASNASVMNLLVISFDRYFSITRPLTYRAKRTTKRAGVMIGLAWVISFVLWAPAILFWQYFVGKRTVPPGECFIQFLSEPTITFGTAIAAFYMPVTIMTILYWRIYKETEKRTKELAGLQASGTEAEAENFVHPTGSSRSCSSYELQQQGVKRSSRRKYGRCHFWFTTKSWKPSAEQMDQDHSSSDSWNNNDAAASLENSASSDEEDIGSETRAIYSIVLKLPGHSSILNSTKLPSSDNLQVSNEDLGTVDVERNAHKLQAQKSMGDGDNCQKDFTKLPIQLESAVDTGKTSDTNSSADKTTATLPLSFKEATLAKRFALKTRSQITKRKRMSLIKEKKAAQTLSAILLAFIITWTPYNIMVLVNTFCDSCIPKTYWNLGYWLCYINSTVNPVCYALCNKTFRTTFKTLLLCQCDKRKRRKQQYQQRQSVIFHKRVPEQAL

Row | Compound | pKi
1 | O=C(Nc1ncsc1-c1ccccc1)OC12CCN(CC1)CC2 [Example 95] | 9.70

Test system: carbachol-induced airway contraction
Experiment: Test of rat airway contraction (carbachol-induced rise in airway pressure)
Type: in vivo
Conditions: evaluation after 3 hours from oral administration, carbachol 30 μg/kg i.v.
Experimental: a. Test of Rat Airway Contraction
Male SD rats (250 to 400 g) were anesthetized by the intraperitoneal administration of pentobarbital sodium (Nembutal; 50 mg/kg), and the major airway was dissected. An airway cannula was intubated into the trachea, and the pressure in the airway was measured by a pressure transducer. After administration of pancuronium bromide (0.2 mg/kg, i.v.), a stable pressure in the airway was obtained before the experiment was initiated. For the experiment, by administration into the external maxillary vein/administration into the duodenum/oral administration/administration into the airway, physiological saline (in the case of oral administration/administration into the duodenum, distilled water) or a compound to be tested was administered, and after 5 to 30 minutes in the case of intravenous administration, after 0.25 to 6 hours in the case of oral administration into the duodenum, and after 0.25 to 72 hours in the case of administration into the airway, carbachol was intravenously administered at a dose (volume) of 30 μg/kg (1 mL/kg), and the pressures in the airway were then measured, respectively, for a period of 5 minutes. […]

Row | Compound | ID50, carbachol-induced airway contraction inhibitory action [mg/kg]
2 | Cl.O=C(Nc1ncsc1-c1ccccc1)OCC12CCN(CC1)CC2 [Example 6, 1-azabicyclo[2.2.2]oct-4-ylmethyl(5-phenyl-1,3-thiazol-4-yl)carbamate hydrochloride] | 0.1
3 | O=C(Nc1ncsc1-c1ccccc1)OC12CCCN(CC1)CC2 [Example 14, 1-azabicyclo[3.2.2]non-5-yl(5-phenyl-1,3-thiazol-4-yl)carbamate] | 0.027
4 | Cl.O=C(Nc1ncsc1-c1ccccc1)OC1C2CC3CC1CN(C3)C2 (centres unmarked) [Example 110] | 0.41
5 | Cl.O=C(Nc1ccsc1-c1ccccc1)OCC1CN2CCC1CC2 (centres unmarked) [Example 136] | 0.68
6 | Cl.O=C(Nc1ncsc1-c1ccc(F)cc1)OC12CCN(CC1)CC2 [Example 156] | 0.091
7 | Cl.O=C(Nc1ncsc1-c1ccccc1)OCC1CN2CCCC1C2 (centres unmarked) [Example 264] | 0.21

Same assay, conditions: evaluation after 24 hours from administration into the trachea of 0.5 μg/kg of a drug

Row | Compound | Inhibition rate, carbachol-induced airway contraction inhibitory action [%]
8 | C[N+]12CCC(OC(=O)Nc3ncsc3-c3cccc(Cl)c3)(CC1)CC2 [Example 32] | 82
9 | O=C(Nc1ccsc1-c1ccccc1)OCC1C[N+]2(CCCc3ccccc3)CCC1CC2 (centres unmarked) [Example 43] | 64
10 | O=C(Nc1ncsc1-c1ccccc1)OC12CC[N+](CCOc3ccccc3)(CC1)CC2 [Example 46] | 90
11 | O=C(Nc1ncsc1-c1ccccc1)OC12CC[N+](CCc3ccccc3)(CC1)CC2 [Example 50] | 61
12 | C[N+]12CCC(OC(=O)Nc3ncsc3-c3cc(F)ccc3F)(CC1)CC2.[I-] [Example 57] | 64
13 | C[N+]12CCCC(OC(=O)Nc3ncsc3-c3ccccc3)(CC1)CC2.[I-] [Example 65] | 61
14 | O=C(Nc1ncsc1-c1cccc(Cl)c1)OC12CC[N+](CCOc3ccccc3)(CC1)CC2.[Br-] [Example 66] | 80
